Patent US7074834B2, “Long acting, reversible veterinary sedative and analgesic and method of use” (University of Kentucky Foundation, priority 2000, dated 2006)
One block for each molecule: values may come before it.

Columns and labels:
Type in all cases: in vivo
[1] = system: horse; experiment: Sedation / head ptosis response in the standing horse after intravenous administration
Description: As used herein by “rapid onset” is meant to include the time interval from administration of the active, e.g., guanabenz acetate, until the drug begins to take effect and produce the intended response, e.g., sedation and/or tranquilization and /or analgesia. For the compositions disclosed herein, this time interval typically ranges from between about 1 minute to about 30 minutes. As one of skill in the art can appreciate, the length of time for onset of action can vary, e.g., depending upon the route of administration, the species, age, size, and health status of the animal and the like. In the adult horse, for example, the clinical signs of sedation will begin to appear within 1–3 minutes following a single intravenous administration of about 100 mg of guanabenz or guanabenz acetate.
The term “analgesia” or “analgesic” is meant to include any conscious relief from a painful stimulus in an animal. In general, an analgesic is an agent that alleviates pain or reduces the sensation of pain without causing loss of consciousness. The term “long lasting” is generally meant to include the time interval from the onset of effect of the active until the effect has waned to a subclinical level. Thus, the establishment of this time interval is subjective but is readily ascertainable in the hands of the skilled artisan. Of course the duration of action of the active can vary, e.g., depending upon the route of administration, the species, age, size, and health status of the animal and the like. In the adult horse, for example, the clinical signs of sedation will begin to appear within 1–3 minutes following a single intravenous administration of about 100 mg of guanabenz or guanabenz acetate and the duration of action is up to about 4 hours.
In one embodiment, the present invention provides the surprising discovery that guanabenz acetate, after a single intravenous dose of about 0.2 milligrams per kilogram per horse, produces a rapid onset of sedation and/or, tranquilization and/or analgesia in the standing horse.
The solid circles (● - - - ●) show head ptosis measured as cm above ground level after rapid intravenous administration of guanabenz.

[2] = Blood glucose, urine glucose, urine production and urine specific gravity after intravenous administration; conditions: horse about 1000 lbs, 0.2 mg/kg (100 mg) intravenously
Description: Referring now to FIG. 3, a horse (about 1000 lbs) was administered guanabenz at a dose of 0.2 mg/kg (100 mg) intravenously at time point 0. […] The solid circles (● - - - ●) show blood glucose levels after rapid intravenous administration of guanabenz. Note also the increase in urine glucose levels after the administration of guanabenz. The open circles (◯-◯) show the corresponding urinary concentrations of glucose after this administration.
In FIG. 3b, note how the dose of 100 mg of guanabenz yields an increase in urine production as indicated by the increase in volume of urine collected. The solid circles (● - - - ●) show volume of urinary output after rapid intravenous administration of guanabenz. Note also in FIG. 3c, the decrease in specific gravity of the urine after the administration of the guanabenz. The solid circles (● - - - ●) show the corresponding urinary specific gravity values after this administration.

[3] = system: horse; experiment: Heat lamp equine analgesia model; conditions: horse 1000 lbs, 0.2 mg/kg (100 mg) intravenously
Description: A horse (1000 lbs) in was administered guanabenz at a dose of 0.2 mg/kg (100 mg) intravenously at time point 0 (see FIG. 2). […] Note also that this response is maintained at full intensity for approximately 30 minutes and declines thereafter, and returns to control values by 6 hrs post administration. The solid circles (● - - - ●) show the increasing control latency in our heat lamp equine analgesia model after administration of guanabenz at indicated zero time.

[4] = standing horse, single intravenous dose of about 0.2 mg/kg

SMILES: COC(=O)[C@@H]1[C@H]2C[C@H]3c4[nH]c5ccccc5c4CCN3C[C@@H]2CC[C@@H]1O [yohimbine]
reversal of guanabenz tranquilization and sedation (head ptosis), FIG. 1 ([1]; horse given guanabenz 100 mg i.v., yohimbine 60 mg intravenously): rapid reversal | reversal of guanabenz acetate sedation and head ptosis response ([1]; horse, guanabenz acetate about 0.2 mg/kg i.v., antagonist given intravenously): rapidly reversible

blood glucose levels, FIG. 3a [2]: transient increase | specific gravity of the urine, FIG. 3c [2]: decrease | urine glucose levels, FIG. 3a [2]: increase | urine production (volume of urine collected), FIG. 3b [2]: increase
SMILES: N=C(N)N/N=C/c1c(Cl)cccc1Cl [guanabenz, 1-[2,6-dichlorobenzylidine-amino]-3-guanidine]
head ptosis response (cm above ground level), FIG. 1 ([1]; horse about 1000 lbs, 0.2 mg/kg (100 mg) intravenously): very rapid onset | onset of analgesia response (desensitization to the heat lamp), FIG. 2 [3]: very rapid onset | time for which the analgesia response is maintained at full intensity [3]: approximately 30 minutes | time at which the analgesia response returns to control values ([3]; post administration): ≤ 6 h

SMILES: N=C(N)N/N=C/c1c(Cl)cccc1Cl [guanabenz acetate]
duration for which sedation and head ptosis are maintained [1, 4]: up to four hours | onset of profound sedation and head ptosis [1, 4]: within one minute
